Measurements taken from patent publication US8395037B2, “Pharmaceutical compositions for treating/preventing motor organ diseases” (Mitsubishi Corporation, priority 2005, dated 2013).

Test system: MMP-3
Test: MMP-3 concentration in synovial fluid of osteoarthritis model knee joints (ELISA)
Assay type: in vivo, rabbit
Details: various concentrations, sequential measurement, versus control knees
Procedure: Sequential biochemical examinations of blood and synovial fluid were also performed (pre-administration and fourth- and eighth-week post-administration of water-solubilized fullerene). The observed biochemical examination items were (A) hepatic function (GOT and GPT), renal function (urea nitrogen and creatinine), and electrolytes (Na, K, and Cl), (B) extracellular matrix-degrading enzyme production ability (MMP-1, 3, and 13), and (C) cartilage matrix-synthesizing ability (proteoglycan). The items of (A) were measured by commercially available testing equipments and items of (B) and (C) were measured by ELISA method.

hydroxylated C60 fullerene
MMP-3 concentration in synovial fluid: No remarkable difference
